Measured values taken from the NIST ThermoML archive (doi:10.1021/acs.jced.8b00975).
± gives the expanded uncertainty stated by the source.

Test: xn = mol fraction of the nth substance listed
Conditions: Liquid, Vibrating tube method

C=C(C)C(=O)OCCN(C)C [2-(dimethylamino)ethyl methylpropenoate] + CCO
mass density [kg/m3]
Conditions	100 kPa	5000 kPa	10000 kPa	15000 kPa	20000 kPa	25000 kPa	30000 kPa	35000 kPa
293.15 K, x1 = 0.0298	802.7 ± 0.51	807.13 ± 0.52	811.22 ± 0.53	815.04 ± 0.54	818.66 ± 0.55	822.14 ± 0.56	825.55 ± 0.57	828.95 ± 0.58
293.15 K, x1 = 0.0598	814.88 ± 0.51	819.12 ± 0.52	823.12 ± 0.52	826.9 ± 0.53	830.51 ± 0.54	834 ± 0.55	837.41 ± 0.56	840.78 ± 0.58
293.15 K, x1 = 0.0999	829.26 ± 0.51	833.46 ± 0.52	837.4 ± 0.52	841.12 ± 0.53	844.67 ± 0.54	848.1 ± 0.55	851.44 ± 0.56	854.75 ± 0.57
293.15 K, x1 = 0.1997	856.9 ± 0.51	861.05 ± 0.52	864.9 ± 0.52	868.5 ± 0.53	871.93 ± 0.53	875.24 ± 0.54	878.49 ± 0.54	881.75 ± 0.55
293.15 K, x1 = 0.3001	876.95 ± 0.51	880.93 ± 0.52	884.66 ± 0.52	888.19 ± 0.52	891.58 ± 0.53	894.86 ± 0.53	898.09 ± 0.54	901.32 ± 0.54
293.15 K, x1 = 0.3966	891.39 ± 0.51	895.28 ± 0.52	898.93 ± 0.52	902.38 ± 0.52	905.7 ± 0.53	908.93 ± 0.53	912.15 ± 0.54	915.39 ± 0.54
293.15 K, x1 = 0.4472	897.49 ± 0.51	901.33 ± 0.52	904.98 ± 0.52	908.47 ± 0.52	911.83 ± 0.53	915.1 ± 0.53	918.3 ± 0.53	921.47 ± 0.54
293.15 K, x1 = 0.4982	902.96 ± 0.51	906.87 ± 0.52	910.51 ± 0.52	913.95 ± 0.52	917.24 ± 0.53	920.43 ± 0.53	923.58 ± 0.53	926.74 ± 0.54
293.15 K, x1 = 0.55	907.68 ± 0.51	911.66 ± 0.52	915.32 ± 0.52	918.74 ± 0.53	921.98 ± 0.53	925.14 ± 0.53	928.28 ± 0.53	931.5 ± 0.54
293.15 K, x1 = 0.5964	911.67 ± 0.52	915.5 ± 0.52	919.12 ± 0.52	922.56 ± 0.53	925.87 ± 0.53	929.09 ± 0.53	932.25 ± 0.54	935.39 ± 0.54
293.15 K, x1 = 0.6982	918.77 ± 0.52	922.55 ± 0.52	926.15 ± 0.53	929.6 ± 0.53	932.93 ± 0.53	936.16 ± 0.54	939.33 ± 0.54	942.44 ± 0.54
293.15 K, x1 = 0.801	924.6 ± 0.53	928.44 ± 0.53	932.04 ± 0.53	935.46 ± 0.54	938.75 ± 0.54	941.94 ± 0.54	945.09 ± 0.54	948.24 ± 0.55
293.15 K, x1 = 0.8977	929.03 ± 0.53	932.82 ± 0.54	936.35 ± 0.54	939.69 ± 0.54	942.92 ± 0.55	946.09 ± 0.55	949.28 ± 0.55	952.57 ± 0.55
293.15 K, x1 = 0.9283	930.22 ± 0.54	934.07 ± 0.54	937.67 ± 0.54	941.06 ± 0.55	944.32 ± 0.55	947.48 ± 0.55	950.62 ± 0.56	953.79 ± 0.56
293.15 K, x1 = 0.9578	931.42 ± 0.54	935.21 ± 0.54	938.78 ± 0.55	942.2 ± 0.55	945.49 ± 0.55	948.71 ± 0.56	951.88 ± 0.56	955.05 ± 0.56
303.15 K, x1 = 0.03	794.45 ± 0.51	798.97 ± 0.52	803.18 ± 0.53	807.13 ± 0.54	810.87 ± 0.55	814.43 ± 0.56	817.87 ± 0.58	821.22 ± 0.59
303.15 K, x1 = 0.0603	806.55 ± 0.51	811.05 ± 0.52	815.24 ± 0.53	819.16 ± 0.54	822.87 ± 0.55	826.4 ± 0.56	829.79 ± 0.57	833.08 ± 0.58
303.15 K, x1 = 0.1002	820.45 ± 0.51	824.89 ± 0.52	829.01 ± 0.52	832.87 ± 0.53	836.53 ± 0.54	840.03 ± 0.55	843.44 ± 0.56	846.8 ± 0.57
303.15 K, x1 = 0.2021	848.13 ± 0.51	852.39 ± 0.52	856.38 ± 0.52	860.15 ± 0.53	863.75 ± 0.54	867.22 ± 0.54	870.62 ± 0.55	873.98 ± 0.56
303.15 K, x1 = 0.3014	867.56 ± 0.51	871.73 ± 0.52	875.66 ± 0.52	879.39 ± 0.53	882.96 ± 0.53	886.41 ± 0.54	889.8 ± 0.54	893.16 ± 0.55
303.15 K, x1 = 0.4003	882.15 ± 0.51	886.21 ± 0.52	890.08 ± 0.52	893.8 ± 0.53	897.38 ± 0.53	900.86 ± 0.54	904.27 ± 0.54	907.64 ± 0.54
303.15 K, x1 = 0.4499	888.16 ± 0.51	892.11 ± 0.52	895.91 ± 0.52	899.59 ± 0.53	903.17 ± 0.53	906.65 ± 0.53	910.06 ± 0.54	913.41 ± 0.54
303.15 K, x1 = 0.5006	893.42 ± 0.51	897.42 ± 0.52	901.25 ± 0.52	904.92 ± 0.53	908.47 ± 0.53	911.94 ± 0.53	915.35 ± 0.54	918.74 ± 0.54
303.15 K, x1 = 0.5488	897.81 ± 0.52	901.82 ± 0.52	905.64 ± 0.52	909.31 ± 0.53	912.87 ± 0.53	916.34 ± 0.53	919.76 ± 0.54	923.18 ± 0.54
303.15 K, x1 = 0.5998	902.09 ± 0.52	906.13 ± 0.52	909.95 ± 0.52	913.6 ± 0.53	917.13 ± 0.53	920.59 ± 0.54	924.04 ± 0.54	927.53 ± 0.54
303.15 K, x1 = 0.703	909.18 ± 0.52	913.16 ± 0.52	916.96 ± 0.53	920.63 ± 0.53	924.18 ± 0.54	927.67 ± 0.54	931.11 ± 0.54	934.54 ± 0.55
303.15 K, x1 = 0.8012	914.76 ± 0.53	918.73 ± 0.53	922.51 ± 0.53	926.15 ± 0.54	929.69 ± 0.54	933.18 ± 0.55	936.65 ± 0.55	940.15 ± 0.55
303.15 K, x1 = 0.9025	919.51 ± 0.53	923.46 ± 0.54	927.24 ± 0.54	930.9 ± 0.55	934.45 ± 0.55	937.94 ± 0.55	941.4 ± 0.56	944.86 ± 0.56
303.15 K, x1 = 0.9288	920.51 ± 0.54	924.41 ± 0.54	928.15 ± 0.54	931.75 ± 0.55	935.26 ± 0.55	938.73 ± 0.56	942.19 ± 0.56	945.69 ± 0.56
303.15 K, x1 = 0.9594	921.58 ± 0.54	925.48 ± 0.54	929.24 ± 0.55	932.89 ± 0.55	936.45 ± 0.56	939.94 ± 0.56	943.39 ± 0.56	946.82 ± 0.57
313.15 K, x1 = 0.0301	785.54 ± 0.51	790.39 ± 0.52	794.86 ± 0.53	799.04 ± 0.54	802.99 ± 0.55	806.8 ± 0.57	810.55 ± 0.58	814.3 ± 0.6
313.15 K, x1 = 0.0604	797.46 ± 0.51	802.1 ± 0.52	806.49 ± 0.53	810.66 ± 0.54	814.64 ± 0.55	818.45 ± 0.56	822.15 ± 0.58	825.75 ± 0.59
313.15 K, x1 = 0.1009	811.29 ± 0.51	815.85 ± 0.52	820.14 ± 0.53	824.2 ± 0.54	828.09 ± 0.55	831.85 ± 0.56	835.51 ± 0.57	839.13 ± 0.58
313.15 K, x1 = 0.2013	838.49 ± 0.51	842.83 ± 0.52	846.98 ± 0.52	850.95 ± 0.53	854.76 ± 0.54	858.45 ± 0.55	862.02 ± 0.55	865.49 ± 0.56
313.15 K, x1 = 0.302	858.03 ± 0.51	862.37 ± 0.52	866.49 ± 0.52	870.43 ± 0.53	874.22 ± 0.53	877.88 ± 0.54	881.45 ± 0.55	884.95 ± 0.55
313.15 K, x1 = 0.401	872.35 ± 0.51	876.61 ± 0.52	880.69 ± 0.52	884.61 ± 0.53	888.4 ± 0.53	892.06 ± 0.54	895.62 ± 0.54	899.08 ± 0.55
313.15 K, x1 = 0.4507	878.39 ± 0.51	882.61 ± 0.52	886.65 ± 0.52	890.55 ± 0.53	894.31 ± 0.53	897.94 ± 0.54	901.47 ± 0.54	904.89 ± 0.55
313.15 K, x1 = 0.4984	883.4 ± 0.52	887.63 ± 0.52	891.71 ± 0.52	895.63 ± 0.53	899.4 ± 0.53	903.03 ± 0.54	906.52 ± 0.54	909.87 ± 0.55
313.15 K, x1 = 0.553	888.58 ± 0.52	892.77 ± 0.52	896.81 ± 0.52	900.7 ± 0.53	904.45 ± 0.53	908.07 ± 0.54	911.57 ± 0.54	914.96 ± 0.55
313.15 K, x1 = 0.6053	892.9 ± 0.52	897.11 ± 0.52	901.15 ± 0.53	905.03 ± 0.53	908.77 ± 0.53	912.39 ± 0.54	915.89 ± 0.54	919.29 ± 0.55
313.15 K, x1 = 0.7041	899.74 ± 0.52	903.88 ± 0.53	907.89 ± 0.53	911.79 ± 0.53	915.55 ± 0.54	919.19 ± 0.54	922.7 ± 0.55	926.09 ± 0.55
313.15 K, x1 = 0.8027	905.5 ± 0.53	909.63 ± 0.53	913.65 ± 0.54	917.54 ± 0.54	921.29 ± 0.54	924.91 ± 0.55	928.37 ± 0.55	931.68 ± 0.56
313.15 K, x1 = 0.9016	910.19 ± 0.53	914.28 ± 0.54	918.27 ± 0.54	922.15 ± 0.55	925.92 ± 0.55	929.56 ± 0.56	933.08 ± 0.56	936.46 ± 0.56
313.15 K, x1 = 0.9342	911.48 ± 0.54	915.6 ± 0.54	919.6 ± 0.55	923.48 ± 0.55	927.25 ± 0.56	930.89 ± 0.56	934.42 ± 0.56	937.83 ± 0.57
313.15 K, x1 = 0.9607	912.61 ± 0.54	916.71 ± 0.54	920.71 ± 0.55	924.61 ± 0.55	928.4 ± 0.56	932.04 ± 0.56	935.54 ± 0.57	938.88 ± 0.57
